From PMC6941357, “An in vitro toolbox to accelerate anti-malarial drug discovery and development” (Malaria Journal, 2020)
Several values for one entry are separate records, joined by “and”; a condition that tells them apart may be missing. Equal values may be shown once. Read-outs that look alike come from different tables or passages of the source. Marks after values point to notes of the source that are not given here.

Assays:
[1] = system: Caco-2 cell monolayers; experiment: Bidirectional permeability across Caco-2 cell monolayers; conditions: for efflux ratio: mean B–A/A–B Papp
Method in brief: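 Transport run in both directions with either HBSS/20 mM HEPES pH 7.4 or human plasma in apical and basolateral chambers, 0.1% v/v DMSO in donor. Donor and acceptor samples quantified by LC–MS; Papp and mass balance calculated, with plasma Papp corrected for donor fraction unbound. Efflux ratio = mean B–A/A–B Papp.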

[2] = system: human plasma; experiment: Plasma protein binding via ultracentrifugation (UC); format: in vitro ADME; conditions: ultracentrifugation, neat plasma
Method in brief: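 Pooled human plasma (3–4 donors) spiked and ultracentrifuged; protein-free supernate gave Cunbound, parallel tubes kept at 37 °C gave Ctotal and stability (start vs end). Samples matrix-matched 1:1 with opposite blank and quantified against a common calibration curve; fu SD by error propagation.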

[3] = system: human liver microsomes; experiment: Binding to human liver microsomes via ultracentrifugation; format: in vitro ADME; conditions: 0.4 mg/mL protein
Method in brief: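 Unbound fraction by ultracentrifugation: Cunbound measured in protein-free supernate, Ctotal from spiked tubes held at 37 °C, sampled at start and end to check degradation. Matrix was 0.4 mg/mL human liver microsomal protein, 0.1 M phosphate pH 7.4; matrix-matched analysis against one calibration curve.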

[4] = Blood to plasma partitioning; format: in vitro ADME, human; conditions: human whole blood, 37 °C
Experimental: Human whole blood was collected and supplied by the Volunteer Blood Donor Registry (Clinical Translation Centre, Walter & Eliza Hall Institute of Medical Research, Parkville, Australia) and used on the day of collection. The haematocrit (Hct) was determined by centrifugation (13,000×g for 3 min using Clemets® Microhaematocrit centrifuge and Safecap® Plain Self-sealing Mylar wrapped capillary tubes) to ensure it was between 0.40 and 0.48. An aliquot was centrifuged (Heraeus, Multifuge 3 S-R; 4500×g) for 10 min to obtain plasma required for matrix matching purposes as described below.
Two aliquots of the spiked whole blood were transferred to fresh microcentrifuge tubes and maintained at 37 °C/5% CO2 in a humidified incubator. The pH was confirmed to be 7.4 ± 0.1 at the start and end of the incubation. At each time point (30 min and 4 h), one whole blood tube was removed from the incubator and mixed by gentle inversion, after which four replicate blood samples were taken and matrix matched with an equal volume of blank plasma. The remainder of the blood sample was centrifuged (Eppendorf, Mini Spin plus; 6700×g) for 2 min for the collection of 4 replicate plasma samples which were similarly matrix matched with an equal volume of blank whole blood. The 1:1 mixtures of blood/plasma were mixed, snap frozen in dry ice and stored at − 80 °C until analysis by LC–MS (Additional file 1: Table S2) against calibration standards prepared in the same mixed matrix. Any further distribution of compound into RBCs at this stage was irrelevant as the cells were lysed during the sample preparation and the total concentration in the mixed matrix was measured for both the calibration standards and samples.
The apparent whole blood-to-plasma partitioning ratio (B/P) was calculated as the ratio of the average concentration in the blood sample to that in the plasma fraction of the same whole blood sample. A standard deviation (SD) for each B/P value was calculated using the propagation of errors approach as described previously.

[5] = system: human plasma; experiment: Plasma protein binding via rapid equilibrium dialysis (RED), 10% plasma; format: in vitro ADME; conditions: RED, 10% plasma corrected for dilution
Method in brief: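 Pooled human plasma (3–4 donors) was diluted 1:10 in pH 7.4 phosphate buffer with 0.04 M NaCl, spiked to ~1000–3000 ng/mL total, and dialysed in RED units at 37 °C with shaking. Devices were pre-conditioned with compound in buffer. Neat-plasma fu was back-calculated from 10% plasma Ctotal and Cunbound (mean of n = 3–4).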

[6] = system: 10% FCS in DMEM; experiment: Binding in DMEM with 10% FCS via ultracentrifugation; format: in vitro ADME, calf
Experimental: Dulbecco’s Modified Eagle’s Medium (DMEM) containing GlutaMAX-I was purchased from Invitrogen (Thermo Fisher Scientific) and stored at 4 °C. Medium was prepared by adding heat inactivated foetal calf serum (FCS, final 10% v/v), penicillin (final 100 U/mL), streptomycin (final 100 µg/mL) D-glucose (final 4.0 mg/mL) and sodium pyruvate (final 0.1 mg/mL).
An ultracentrifugation method adapted from a previous publication was initially used to assess plasma protein binding and binding in the other media. […] Additional ultracentrifuge tubes containing spiked matrix were maintained at 37 °C, 5% or 10% CO2 or normal atmosphere conditions, with aliquots being taken within 0.5 h of the start and at the end of ultracentrifugation to serve as controls for the assessment of stability and to obtain a measure of the total concentration (Ctotal). Following ultracentrifugation, the pH was checked and an aliquot of protein-free supernate was taken from each ultracentrifuge tube for determination of the unbound concentration (Cunbound).
Total matrix and protein free samples were analysed using a matrix matching approach whereby each sample was mixed in a 1:1 ratio with the opposite blank medium (i.e. blank total matrix or blank protein free buffer). For example, plasma samples were mixed with blank pH 7.4 buffer whereas plasma supernatant samples were mixed with blank plasma. Each of the sample sets were then assayed against a common calibration curve prepared in a 1:1 mixture of total matrix and protein free pH 7.4 buffer. […] The standard deviation for fu was calculated using the propagation of errors approach as described previously. The potential for compound degradation was assessed by comparing the average value for Ctotal at the start and end of the experiment.

[7] = system: Caco-2 cell monolayers; conditions: cited from earlier work
[8] = matrix: human plasma, corrected for fu
[9] = matrix: pH 7.4 buffer, ref 31 (quinine), 78 (DSM421)
[10] = presaturation of device and 24 h dialysis

Compound	Fraction unbound, human plasma ([5]; 6 h dialysis)	Fraction unbound, 10% FCS in DMEM [6]	A–B Papp ([1]; matrix: pH 7.4 buffer)	A–B Papp [1, 8]	B–A Papp [1, 8]	efflux ratio ([1]; matrix: human plasma)	Fraction unbound, human plasma [2]	Fraction unbound, HLM [3]	B/P (whole blood to plasma partitioning ratio) [4]	A–B Papp [7, 9]	B–A Papp [7, 9]	efflux ratio [7, 9]	Fraction unbound, human plasma [5, 10]	B–A Papp ([1]; matrix: pH 7.4 buffer)	efflux ratio ([1]; matrix: pH 7.4 buffer)	Literature ER ([7]; Caco-2, ref [33], [35] of Additional file 1)	Literature Papp ([7]; Caco-2 A-B, ref [33]–[35] of Additional file 1)	A–B Papp [7, 8]	B–A Papp [7, 8]	efflux ratio ([7]; matrix: human plasma)
CCN(CC)CCCNc1ccnc2cc(Cl)ccc12.Cl.Cl [AQ-13]	–	–	–	25 ± 2.3 10^−6 cm/s	32 ± 0.8 10^−6 cm/s	1.2	0.43 ± 0.022	0.66 ± 0.048	3.15 ± 0.20	–	–	–	–	–	–	–	–	–	–	–
CN(C)C[c-]1cccc1CNc1ccnc2cc(Cl)ccc12.[Fe+2].c1cc[cH-]c1 (centres unmarked) [Ferroquine]	–	0.364 ± 0.026	–	32 ± 6.8 10^−6 cm/s	24 ± 4.1 10^−6 cm/s	0.8	0.070 (0.0080)	0.27 ± 0.032	1.6 ± 0.15	–	–	–	0.041 ± 0.0010^c	–	–	–	–	–	–	–
CC(C)(C)NCc1cc(Nc2ccnc3cc(Cl)ccc23)c2c(c1O)CCCC2 [Naphthoquine]	0.019 (0.0010)	–	–	–	–	–	0.030 (0.0020)	0.21 ± 0.015	1.14 ± 0.10	–	–	–	0.018 ± 0.0010^c	–	–	0.8	27.3 ± 0.6 10-6 cm/sec	230 ± 32 10^−6 cm/s	180 ± 10 10^−6 cm/s	0.8 and 0.78
CCc1nc(N)nc(N)c1OCCCOc1ccccc1CCC(=O)O.Cl [P218]	–	0.684 ± 0.017	–	–	–	–	0.13 ± 0.013	0.88 ± 0.041	0.56 ± 0.03	–	–	–	–	15 ± 1.7 10^−6 cm/s	21	–	–	–	–	–
CS(=O)(=O)O.FC1CCN(CCOc2ccc(C3CCC4(CC3)OOC3(OO4)C4CC5CC(C4)CC3C5)cc2)CC1 (centres unmarked) [TDD-E209]	< 0.0001	–	–	> 300 10^−6 cm/s	> 300 10^−6 cm/s	–	0.094 (0.011)	0.0003 ± 0.000010	0.51 ± 0.08	–	–	–	< 0.0001^c	–	–	–	–	–	–	–

Further lines, with some results ahead:

Fraction unbound, human plasma ([5]; 6 h dialysis)	Fraction unbound, 10% FCS in DMEM [6]	A–B Papp ([1]; matrix: pH 7.4 buffer)	Compound	A–B Papp [1, 8]	B–A Papp [1, 8]	efflux ratio ([1]; matrix: human plasma)	Fraction unbound, human plasma [2]	Fraction unbound, HLM [3]	B/P (whole blood to plasma partitioning ratio) [4]	A–B Papp [7, 9]	B–A Papp [7, 9]	efflux ratio [7, 9]	Fraction unbound, human plasma [5, 10]	B–A Papp ([1]; matrix: pH 7.4 buffer)	efflux ratio ([1]; matrix: pH 7.4 buffer)	Literature ER ([7]; Caco-2, ref [33], [35] of Additional file 1)	Literature Papp ([7]; Caco-2 A-B, ref [33]–[35] of Additional file 1)	A–B Papp [7, 8]	B–A Papp [7, 8]	efflux ratio ([7]; matrix: human plasma)
0.035 (0.0044)	0.615 ± 0.043	–	Cc1cc(Nc2ccc(C(F)(F)F)nc2)n2nc(C(C)(F)F)nc2n1 [DSM421]	–	–	–	0.039 ± 0.007	–	0.53 ± 0.03	33 ± 2.5 10^−6 cm/s	46 10^−6 cm/s	1.4	–	–	–	–	–	–	–	–
< 0.0001	0.001 ± 0.001	–	COc1cc2[nH]c(C)c(-c3ccc(Oc4ccc(OC(F)(F)F)cc4)cc3)c(=O)c2cc1Cl [ELQ300]	> 300 10^−6 cm/s	> 300 10^−6 cm/s	–	0.011 (0.0020)	0.002 ± 0.00010	0.53 ± 0.05	–	–	–	0.00010 ± 0.000010^c	–	–	–	–	–	–	–
0.0011 (0.0002)	0.227 ± 0.012	–	CC(C)(C)NCc1cc(C(C)(C)C)cc(-c2cnc(C(F)(F)F)c(F)c2)c1O [JPC3210]	> 300 10^−6 cm/s	> 300 10^−6 cm/s	–	0.071	0.029 ± 0.0030	0.54 ± 0.04	–	–	–	–	–	–	–	–	–	–	–
0.24 ± 0.0020^b	0.638 ± 0.065	34 ± 2.6 10^−6 cm/s	O=C(NCCN1CCCC1)c1cc(-c2ccc(CN3CCOCC3)cc2)nc2ccc(F)cc12 [M5717]	–	–	–	0.34 (0.021)	0.50 ± 0.041	1.3 ± 0.02	–	–	–	–	39 ± 7.6 10^−6 cm/s	1.1	–	–	–	–	–
< 0.0003	0.043 ± 0.004	–	COc1cc(N[C@H](C)CCCN)c2nccc(C)c2c1Oc1ccc(Cl)c(Cl)c1 [NPC1161B]	> 300 10^−6 cm/s	> 300 10^−6 cm/s	–	0.046 (0.0090)	–	1.09 ± 0.07	–	–	–	0.00074 ± 0.00016^c	–	–	–	–	–	–	–
